Measurements published in patent publication US12495818B2, “Dihydrochalcones from Balanophora harlandii” (The Coca-Cola Company, priority 2018, dated 2025).

Test system: panelists
Assay: Sweetness enhancement taste panel (Example 2)
Assay type: in vivo, human
Conditions: 20 ppm CC-00474 + 250 ppm Rebaudioside M in acidic water (citric acid) vs control of 250 ppm Rebaudioside M and PG; served cold, sip and spit; all panelists agreed
Experimental: Samples were prepared with the following ingredients:
CC-00474 in PG was prepared in weighing boat and added to Reb M solution while stirring. The weighing boat was rinsed with Reb M solution. The solution was stirred visibly clear and the sample was poured into a glass bottle and stored at 4° C.
Bottles were removed from the refrigerator and about 25 ml of beverage was poured into 4 oz-plastic cups. Panelists were given mineral water to rinse their mouth before tasting and between tasting different samples. Unsalted crackers were also given to panelist to eat followed by rinsing their mouth with mineral water before tasting the next sample.
A sample of Rebaudioside M in acidic water and a sample of CC-00474 and Rebaudioside M in acidic water were given to panelists. Panelists were asked to evaluate the sweetness of samples and describe the difference of taste profile. Panelists were instructed to sip, evaluate the sweetness, and then spit the samples in cups provided for that purpose.

Compound: COc1cc(CCC(=O)c2c(O)cc(O[C@@H]3OC(CO)[C@@H](O)[C@H](O)C3O)cc2O)ccc1O (stereo partly drawn) [CC-00474, 3-methoxyphloretin-4′-O-β-D-glucoside]
- sweetness of the sample compared with Rebaudioside M only: sweeter than the sample containing Rebaudioside M only
